# Values of other authors, collected in PubChem BioAssay AID1259409 (Chemical Carcinogenesis Research Information System (CCRIS), 2018).
# System: rodent chemically induced tumor inhibition, incidence and multiplicity
# Assay: CCRIS tumor inhibitor studies
# Conditions: Route [Inhibitor]: ORAL, Promoter: NONE USED
smiles,measurement,setting,value
CC1=C(/C=C/C(C)=C/C=C/C(C)=C/C(=O)Nc2ccc(O)cc2)C(C)(C)CCC1,"tumour outcome (control, treated, inhibition, significance)","Carcinogen: METHYLNITROSOUREA, 684-93-5, Dose [Inhibitor]: 0, 782 MG/KG DIET IN VEHICLE 2 MO PRIOR TO CARCINOGEN DOSE AND CONTINUED UNTIL CARCINOGEN ADMINISTRATION (STUDY DURATION, Species: RAT, Strain/Sex: CD-1/FEMALE, Target Tissue: Type of Lesion: MAMMARY GLAND: BENIGN TUMOR, Dose [Carcinogen]: 50 MG/KG BW ONCE","10%, 14%, -40%, not calculated"
same,"tumour outcome (control, treated, inhibition, significance)","Carcinogen: N-BUTYL-N(4-HYDROXYBUTYL)NITROSAMINE, 3817-11-6, Dose [Inhibitor]: 0, 156 MG/KG DIET FOR 6 MO BEGINNING 1 WK PRIOR TO CARCINOGEN TREATMENT (STUDY DURATION: 6 MO), Species: MOUSE, Strain/Sex: BDF/MALE, Target Tissue: Type of Lesion: URINARY BLADDER: CARCINOMA, Dose [Carcinogen]: 7.5 MG IN 0.1 ML ETHANOL:WATER (20:80) 1/WK FOR 8 WK","27/70 (39%), 31/67 (46%), -18%, not calculated"
same,"tumour outcome (control, treated, inhibition, significance)","Carcinogen: N-BUTYL-N-(4-HYDROXYBUTYL)NITROSAMINE, 3817-11-6, Dose [Inhibitor]: 0, 156 MG/KG DIET BEGINNING 1 WK PRIOR TO CARCINOGEN TREATMENT AND CONTINUING FOR DURATION OF STUDY (STUDY DURATION: 180, Species: MOUSE, Strain/Sex: BDF/MALE, Target Tissue: Type of Lesion: BLADDER: CARCINOMA, Dose [Carcinogen]: 7.5 MG IN 0.1 ML OF ETHANOL:WATER (20:80) 1/WK FOR 8 WK","25/63 (40%), 27/70 (39%), 3%, not significant"
same,"tumour outcome (control, treated, inhibition, significance)","Carcinogen: N-BUTYL-N-(4-HYDROXYBUTYL)NITROSAMINE, 3817-11-6, Dose [Inhibitor]: 0, 313 MG/KG DIET BEGINNING 1 WK PRIOR TO CARCINOGEN TREATMENT AND CONTINUING FOR DURATION OF STUDY (STUDY DURATION: 180, Species: MOUSE, Strain/Sex: BDF/MALE, Target Tissue: Type of Lesion: BLADDER: CARCINOMA, Dose [Carcinogen]: 7.5 MG IN 0.1 ML OF ETHANOL:WATER (20:80) 1/WK FOR 8 WK","28/65 (43%), 20/67 (30%), 30%, not significant"
same,"tumour outcome (control, treated, inhibition, significance)","Carcinogen: N-BUTYL-N-(4-HYDROXYBUTYL)NITROSAMINE, 3817-11-6, Dose [Inhibitor]: 0, 313 MG/KG DIET FOR 6 MO BEGINNING 1 WK PRIOR TO CARCINOGEN TREATMENT (STUDY DURATION: 6 MO), Species: MOUSE, Strain/Sex: BDF/MALE, Target Tissue: Type of Lesion: URINARY BLADDER: CARCINOMA, Dose [Carcinogen]: 7.5 MG IN 0.1 ML ETHANOL:WATER (20:80) 1/WK FOR 8 WK","30/73 (41%), 28/67 (42%), -2%, not calculated"
same,"tumour outcome (control, treated, inhibition, significance)","Carcinogen: N-BUTYL-N-(4-HYDROXYBUTYL)NITROSAMINE, 3817-11-6, Dose [Inhibitor]: 1.5 MMOL/KG DIET DAILY FOR 153 D STARTING ONE WK AFTER THE FINAL CARCINOGEN DOSE (STUDY DURATION: 210 D), Species: MOUSE, Strain/Sex: BDF/MALE, Target Tissue: Type of Lesion: URINARY BLADDER: TRANSITIONAL CELL CARCINOMA, Dose [Carcinogen]: 7.5 MG 1/WK FOR 8 WK","35/99 (35%), 21/100 (21%), 40%, p<0.05"
same,"tumour outcome (control, treated, inhibition, significance)","Carcinogen: N-BUTYL-N-(4-HYDROXYBUTYL)NITROSAMINE, 3817-11-6, Dose [Inhibitor]: 1.5 MMOL/KG IN DIET FOR 153 D STARTING 1 WK AFTER LAST CARCINOGEN DOSE (STUDY DURATION: 210 D), Species: MOUSE, Strain/Sex: DBF1/MALE, Target Tissue: Type of Lesion: URINARY BLADDER: TRANSITIONAL CELL CARCINOMA, Dose [Carcinogen]: 7.5 MG 1/WK FOR 8 WK","35/99 (35%), 21/100 (21%), 40%, p<0.05"
same,"tumour outcome (control, treated, inhibition, significance)","Carcinogen: N-BUTYL-N-(4-HYDROXYBUTYL)NITROSAMINE, 3817-11-6, Dose [Inhibitor]: 391 MG/KG DIET STARTING 1 WK AFTER FINAL CARCINOGEN DOSE AND CONTINUING THROUGH END OF STUDY (STUDY DURATION: 205 D), Species: MOUSE, Strain/Sex: DBF1/MALE, Target Tissue: Type of Lesion: URINARY BLADDER: TRANSITIONAL CELL CARCINOMA, Dose [Carcinogen]: 7.5 MG 1/WK FOR 8 WK","19/50 (38%), 9/49 (18%), 53%, p<0.05"
same,"tumour outcome (control, treated, inhibition, significance)","Carcinogen: N-BUTYL-N-(4-HYDROXYBUTYL)NITROSAMINE, 3817-11-6, Dose [Inhibitor]: 391 MG/KG IN DIET BEGINNING 1 WK AFTER FINAL CARCINOGEN DOSE AND CONTINUING THROUGH END OF STUDY (STUDY DURATION: 205 D), Species: MOUSE, Strain/Sex: DBF1/MALE, Target Tissue: Type of Lesion: URINARY BLADDER: TRANSITIONAL CELL CARCINOMA, Dose [Carcinogen]: 7.5 MG 1/WK FOR 8 WK","19/50 (38%), 9/49 (18%), 53%, p<0.05"
same,"tumour outcome (control, treated, inhibition, significance)","Carcinogen: N-ETHYL-N-NITROSOUREA, 759-73-9, Dose [Inhibitor]: 0, 98 MG/KG DIET FOR DURATION OF STUDY BEGINNING POST CARCINOGEN DOSE (STUDY DURATION: 35 WK), Species: MOUSE, Strain/Sex: PIM/MALE, Target Tissue: Type of Lesion: LYMPHATIC SYSTEM: LYMPHOMA, Dose [Carcinogen]: 50 MG/KG BW ONCE","21/40 (53%), 13/30 (43%), 19%, not significant"
same,"tumour outcome (control, treated, inhibition, significance)","Carcinogen: N-ETHYL-N-NITROSOUREA, 759-73-9, Dose [Inhibitor]: 0, 196 MG/KG DIET FOR DURATION OF STUDY BEGINNING POST CARCINOGEN DOSE (STUDY DURATION: 35 WK), Species: MOUSE, Strain/Sex: PIM/MALE, Target Tissue: Type of Lesion: LYMPHATIC SYSTEM: LYMPHOMA, Dose [Carcinogen]: 50 MG/KG BW ONCE","21/40 (53%), 15/29 (52%), 2%, not significant"
same,"tumour outcome (control, treated, inhibition, significance)","Carcinogen: N-ETHYL-N-NITROSOUREA, 759-73-9, Dose [Inhibitor]: 0, 391 MG/KG DIET FOR DURATION OF STUDY BEGINNING POST CARCINOGEN DOSE (STUDY DURATION: 35 WK), Species: MOUSE, Strain/Sex: PIM/MALE, Target Tissue: Type of Lesion: LYMPHATIC SYSTEM: LYMPHOMA, Dose [Carcinogen]: 50 MG/KG BW ONCE","21/40 (53%), 16/40 (40%), 26%, not significant"
